Experiments:
[1] = test system: TRZAWR (Wheat, Winter, cv Riband); assay: Postemergence herbicidal evaluation; type: in vivo, Triticum aestivum; details: postemergence
How it was run: (§1)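 Compound is applied as a foliar spray to seedlings about two weeks old, formulated in equal parts acetone and water with 0.5% TWEEN 20 and delivered at 40 psi to give about 0.0156–0.500 kg per hectare. Injury is rated visually 0–9 after four to five weeks.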

[2] = test system: IPOHE (Morningglory, Ivyleaf); assay: Preemergence herbicidal evaluation; type: in vivo, Ipomoea hederacea; details: rated 4-5 weeks after treatment, rating scale 0-9
How it was run: (§2)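 Greenhouse preemergence test: seed-soil mix sown on ~1 inch soil; aqueous acetone spray at equivalent of ~0.0156–0.500 kg/ha; greenhouse-held and watered; scored 0–9 visually at 4–5 weeks.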

[3] = test system: MOOVA (Monochoria); assay: Preemergence weed control under flooded paddy conditions; type: in vivo, Monochoria vaginalis; details: rated 3-4 weeks after treatment
How it was run: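 Visual injury scored 0-9 against control three to four weeks post-treatment, greenhouse-grown. Application: acetone/water (50/50) solutions dosed directly into flood water (1.5-3 cm over silt loam, planted top 0.5 cm), roughly 0.0313 to 0.500 kg/ha active ingredient.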

[4] = test system: TRZAWR (Wheat, Winter, cv Riband); assay: Preemergence herbicidal evaluation; type: in vivo, Triticum aestivum; details: rated 4-5 weeks after treatment, rating scale 0-9
How it was run: as §2

[5] = test system: ORYSAT (Rice, Tebonnet); assay: Preemergence herbicidal evaluation; type: in vivo, Oryza sativa, (L.) Tebonnet; details: rated 4-5 weeks after treatment, rating scale 0-9
How it was run: as §2

[6] = test system: SETVI (Foxtail, Green); assay: Preemergence herbicidal evaluation; type: in vivo, Setaria viridis; details: rated 4-5 weeks after treatment, rating scale 0-9
How it was run: as §2

[7] = test system: ABUTH (Velvetleaf); assay: Postemergence herbicidal evaluation; type: in vivo, Abutilon theophrasti; details: postemergence
How it was run: as §1

[8] = test system: ECHCG (Barnyardgrass); assay: Preemergence herbicidal evaluation; type: in vivo, Echinochloa crus-galli; details: rated 4-5 weeks after treatment, rating scale 0-9
How it was run: as §2

[9] = test system: CHEAL (Lambsquarters, Common); assay: Preemergence herbicidal evaluation; type: in vivo, Chenopodium album; details: rated 4-5 weeks after treatment, rating scale 0-9
How it was run: as §2

[10] = test system: ECHORC (Watergrass (Calif.)); assay: Preemergence weed control under flooded paddy conditions; type: in vivo, Echinochloa oryzoides; details: rated 3-4 weeks after treatment
How it was run: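 Silt loam, seeds in top 0.5 cm; flood held 1.5-3 cm; test cpd as acetone/water 50/50 into flood water, ~0.0313-0.500 kg/ha a.i.; greenhouse 3-4 wk; visual 0-9 score vs control.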

[11] = test system: IPOHE (Morningglory, Ivyleaf); assay: Postemergence herbicidal evaluation; type: in vivo, Ipomoea hederacea; details: postemergence
How it was run: as §1

For `Cn1c(C(F)(F)F)cc(=O)n(-c2cc(N=C3SCC(=O)N3Cc3ccc(Cl)c(Cl)c3)c(Cl)cc2F)c1=O` [Compound 144, 3-{4-Chloro-5-{[3-(3,4-dichlorobenzyl)-4-oxo-2-thiazolidinylidene]amino}-2-fluorophenyl}-1-methyl-6-(trifluoromethyl)-2,4(1H,3H)-pyrimidinedione], the “Herbicidal rating TRZAWR” value ([1]; rate 0.0156 kg/ha) was 3.5, the “Herbicidal rating TRZAWR” value ([1]; rate 0.0313 kg/ha) was 3.5 and the “Herbicidal rating TRZAWR” value ([1]; rate 0.0625 kg/ha) was 4.0. The “Preemergence herbicidal rating IPOHE” value ([2]; rate 0.0156 kg/ha) was 0.0, the “Preemergence herbicidal rating IPOHE” value ([2]; rate 0.0313 kg/ha) was 0.0 and the “Preemergence herbicidal rating IPOHE” value ([2]; rate 0.0625 kg/ha) was 0.0. The “Preemergence herbicidal rating IPOHE” value ([2]; rate 0.1250 kg/ha) was 0.0, the “Preemergence herbicidal rating IPOHE” value ([2]; rate 0.2500 kg/ha) was 1.0 and the “herbicidal effect rating, MOOVA” value ([3]; 0.0313 kg/ha) was 6.0. For the same compound, the “herbicidal effect rating, MOOVA” value ([3]; 0.0625 kg/ha) was 9.0, the “herbicidal effect rating, MOOVA” value ([3]; 0.1250 kg/ha) was 9.0 and the “herbicidal effect rating, MOOVA” value ([3]; 0.2500 kg/ha) was 9.0. For the same compound, the “Preemergence herbicidal rating TRZAWR” value ([4]; rate 0.0156 kg/ha) was 0.0, the “Preemergence herbicidal rating TRZAWR” value ([4]; rate 0.0313 kg/ha) was 0.0 and the “Preemergence herbicidal rating TRZAWR” value ([4]; rate 0.0625 kg/ha) was 0.0. For the same compound, the “Preemergence herbicidal rating TRZAWR” value ([4]; rate 0.1250 kg/ha) was 0.0, the “Preemergence herbicidal rating TRZAWR” value ([4]; rate 0.2500 kg/ha) was 0.0 and the “Preemergence herbicidal rating ORYSAT” value ([5]; rate 0.0156 kg/ha) was 0.0. For the same compound, the “Preemergence herbicidal rating ORYSAT” value ([5]; rate 0.0313 kg/ha) was 0.0, the “Preemergence herbicidal rating ORYSAT” value ([5]; rate 0.0625 kg/ha) was 0.0 and the “Preemergence herbicidal rating ORYSAT” value ([5]; rate 0.1250 kg/ha) was 0.0. For the same compound, the “Preemergence herbicidal rating ORYSAT” value ([5]; rate 0.2500 kg/ha) was 0.0, the “Preemergence herbicidal rating SETVI” value ([6]; rate 0.0156 kg/ha) was 0.0 and the “Preemergence herbicidal rating SETVI” value ([6]; rate 0.0313 kg/ha) was 0.0. For the same compound, the “Preemergence herbicidal rating SETVI” value ([6]; rate 0.0625 kg/ha) was 2.0, the “Preemergence herbicidal rating SETVI” value ([6]; rate 0.1250 kg/ha) was 9.0 and the “Preemergence herbicidal rating SETVI” value ([6]; rate 0.2500 kg/ha) was 9.0. The “Herbicidal rating ABUTH” value ([7]; rate 0.0156 kg/ha) was 9.0, the “Herbicidal rating ABUTH” value ([7]; rate 0.0313 kg/ha) was 9.0 and the “Herbicidal rating ABUTH” value ([7]; rate 0.0625 kg/ha) was 9.0. For the same compound, the “Preemergence herbicidal rating ECHCG” value ([8]; rate 0.0156 kg/ha) was 0.0, the “Preemergence herbicidal rating ECHCG” value ([8]; rate 0.0313 kg/ha) was 0.0 and the “Preemergence herbicidal rating ECHCG” value ([8]; rate 0.0625 kg/ha) was 0.0. The “Preemergence herbicidal rating ECHCG” value ([8]; rate 0.1250 kg/ha) was 0.0, the “Preemergence herbicidal rating ECHCG” value ([8]; rate 0.2500 kg/ha) was 1.0 and the “Preemergence herbicidal rating CHEAL” value ([9]; rate 0.0156 kg/ha) was 6.0. The “Preemergence herbicidal rating CHEAL” value ([9]; rate 0.0313 kg/ha) was 7.0, the “Preemergence herbicidal rating CHEAL” value ([9]; rate 0.0625 kg/ha) was 9.0 and the “Preemergence herbicidal rating CHEAL” value ([9]; rate 0.1250 kg/ha) was 9.0. For the same compound, the “Preemergence herbicidal rating CHEAL” value ([9]; rate 0.2500 kg/ha) was 9.0, the “herbicidal effect rating, ECHORC” value ([10]; 0.0313 kg/ha) was 0.0 and the “herbicidal effect rating, ECHORC” value ([10]; 0.0625 kg/ha) was 0.0. For the same compound, the “herbicidal effect rating, ECHORC” value ([10]; 0.1250 kg/ha) was 1.0, the “herbicidal effect rating, ECHORC” value ([10]; 0.2500 kg/ha) was 3.0 and the “Herbicidal rating IPOHE” value ([11]; rate 0.0156 kg/ha) was 9.0. For the same compound, the “Herbicidal rating IPOHE” value ([11]; rate 0.0313 kg/ha) was 9.0 and the “Herbicidal rating IPOHE” value ([11]; rate 0.0625 kg/ha) was 9.0.
`Cc1cc(C)cc(CN2C(=O)CSC2=Nc2cc(-n3c(=O)cc(C(F)(F)F)n(C)c3=O)c(F)cc2Cl)c1` [Compound 146, 3-{4-Chloro-5-{[3-(3,5-dimethylbenzyl)-4-oxo-2-thiazolidinylidene]amino}-2-fluorophenyl}-1-methyl-6-(trifluoromethyl)-2,4(1H,3H)-pyrimidinedione] was tested, and the “Herbicidal rating TRZAWR” value ([1]; rate 0.0156 kg/ha) was 2.0, the “Herbicidal rating TRZAWR” value ([1]; rate 0.0313 kg/ha) was 3.5 and the “Herbicidal rating TRZAWR” value ([1]; rate 0.0625 kg/ha) was 4.5. The “Preemergence herbicidal rating IPOHE” value ([2]; rate 0.0156 kg/ha) was 0.0, the “Preemergence herbicidal rating IPOHE” value ([2]; rate 0.0313 kg/ha) was 0.0 and the “Preemergence herbicidal rating IPOHE” value ([2]; rate 0.0625 kg/ha) was 0.0. For the same compound, the “Preemergence herbicidal rating IPOHE” value ([2]; rate 0.1250 kg/ha) was 0.0, the “Preemergence herbicidal rating IPOHE” value ([2]; rate 0.2500 kg/ha) was 0.0 and the “herbicidal effect rating, MOOVA” value ([3]; 0.0313 kg/ha) was 4.0. For the same compound, the “herbicidal effect rating, MOOVA” value ([3]; 0.0625 kg/ha) was 6.0, the “herbicidal effect rating, MOOVA” value ([3]; 0.1250 kg/ha) was 6.0 and the “herbicidal effect rating, MOOVA” value ([3]; 0.2500 kg/ha) was 9.0. The “Preemergence herbicidal rating TRZAWR” value ([4]; rate 0.0156 kg/ha) was 0.0, the “Preemergence herbicidal rating TRZAWR” value ([4]; rate 0.0313 kg/ha) was 0.0 and the “Preemergence herbicidal rating TRZAWR” value ([4]; rate 0.0625 kg/ha) was 0.0. For the same compound, the “Preemergence herbicidal rating TRZAWR” value ([4]; rate 0.1250 kg/ha) was 0.0, the “Preemergence herbicidal rating TRZAWR” value ([4]; rate 0.2500 kg/ha) was 1.0 and the “Preemergence herbicidal rating ORYSAT” value ([5]; rate 0.0156 kg/ha) was 0.0. The “Preemergence herbicidal rating ORYSAT” value ([5]; rate 0.0313 kg/ha) was 0.0, the “Preemergence herbicidal rating ORYSAT” value ([5]; rate 0.0625 kg/ha) was 0.0 and the “Preemergence herbicidal rating ORYSAT” value ([5]; rate 0.1250 kg/ha) was 0.0. The “Preemergence herbicidal rating ORYSAT” value ([5]; rate 0.2500 kg/ha) was 1.0, the “Preemergence herbicidal rating SETVI” value ([6]; rate 0.0156 kg/ha) was 0.0 and the “Preemergence herbicidal rating SETVI” value ([6]; rate 0.0313 kg/ha) was 0.0. The “Preemergence herbicidal rating SETVI” value ([6]; rate 0.0625 kg/ha) was 0.0, the “Preemergence herbicidal rating SETVI” value ([6]; rate 0.1250 kg/ha) was 3.0 and the “Preemergence herbicidal rating SETVI” value ([6]; rate 0.2500 kg/ha) was 5.0. The “Herbicidal rating ABUTH” value ([7]; rate 0.0156 kg/ha) was 9.0, the “Herbicidal rating ABUTH” value ([7]; rate 0.0313 kg/ha) was 9.0 and the “Herbicidal rating ABUTH” value ([7]; rate 0.0625 kg/ha) was 9.0. For the same compound, the “Preemergence herbicidal rating ECHCG” value ([8]; rate 0.0156 kg/ha) was 0.0, the “Preemergence herbicidal rating ECHCG” value ([8]; rate 0.0313 kg/ha) was 0.0 and the “Preemergence herbicidal rating ECHCG” value ([8]; rate 0.0625 kg/ha) was 0.0. For the same compound, the “Preemergence herbicidal rating ECHCG” value ([8]; rate 0.1250 kg/ha) was 0.0, the “Preemergence herbicidal rating ECHCG” value ([8]; rate 0.2500 kg/ha) was 0.0 and the “Preemergence herbicidal rating CHEAL” value ([9]; rate 0.0156 kg/ha) was 0.0. For the same compound, the “Preemergence herbicidal rating CHEAL” value ([9]; rate 0.0313 kg/ha) was 9.0, the “Preemergence herbicidal rating CHEAL” value ([9]; rate 0.0625 kg/ha) was 9.0 and the “Preemergence herbicidal rating CHEAL” value ([9]; rate 0.1250 kg/ha) was 9.0. For the same compound, the “Preemergence herbicidal rating CHEAL” value ([9]; rate 0.2500 kg/ha) was 9.0, the “herbicidal effect rating, ECHORC” value ([10]; 0.0313 kg/ha) was 9.0 and the “herbicidal effect rating, ECHORC” value ([10]; 0.0625 kg/ha) was 9.0. The “herbicidal effect rating, ECHORC” value ([10]; 0.1250 kg/ha) was 9.0, the “herbicidal effect rating, ECHORC” value ([10]; 0.2500 kg/ha) was 9.0 and the “Herbicidal rating IPOHE” value ([11]; rate 0.0156 kg/ha) was 9.0. The “Herbicidal rating IPOHE” value ([11]; rate 0.0313 kg/ha) was 9.0 and the “Herbicidal rating IPOHE” value ([11]; rate 0.0625 kg/ha) was 9.0.

From patent US20020137929A1, “1 - (3-heterocyclylphenyl) isothiourea, -isourea, -guanidine and -amidine herbicidal agents” (Intellectual Property Department, BASF Aktiengesellschaft, priority 1998, published 2002)
